Laboratory results from patent US5856341A, “Benzo [B] indeno [2,1-D] thiophene compounds, intermediates, processes, compositions and methods” (Eli Lilly and Company, priority 1997, dated 1999).
pIC50: −log10 of the molar value.

Assays:
uterus = assay: Uterine weight in ovariectomized rats, 4 days daily oral dosing (postmenopausal model); type: in vivo, Sprague Dawley rats; conditions: for Uterine Weight % Increase verses ovariectomized controls: daily for 4 days, OVX rats
Method: (§1) In the examples illustrating the methods, a postmenopausal model was used in which effects of different treatments upon circulating lipids were determined.
(§2) Seventy-five day old female Sprague Dawley rats (weight range of 200 to 225 g) were obtained from Charles River Laboratories (Portage, Mich.). The animals were either bilaterally ovariectomized (OVX) or exposed to a Sham surgical procedure at Charles River Laboratories, and then shipped after one week. Upon arrival, they were housed in metal hanging cages in groups of 3 or 4 per cage and had ad libitum access to food (calcium content approximately 0.5%) and water for one week. Room temperature was maintained at 22.2°±1.7° C. with a minimum relative humidity of 40%. The photoperiod in the room was 12 hours light and 12 hours dark.
(§3) Dosing Regimen Tissue Collection. After a one week acclimation period (therefore, two weeks post-OVX) daily dosing with test compound was initiated. 17α-ethynyl estradiol or the test compound were given orally, unless otherwise stated, as a suspension in 1% carboxymethylcellulose or dissolved in 20% cyclodextrin. Animals were dosed daily for 4 days. Following the dosing regimen, animals were weighed and anesthetized with a ketamine: xylazine (2:1, V:V) mixture and a blood sample was collected by cardiac puncture. The animals were then sacrificed by asphyxiation with CO2, the uterus was removed through a midline incision, and a wet uterine weight was determined.
(§4) Source of Compound: 17α-ethynyl estradiol was obtained from Sigma Chemical Co., St. Louis, Mo.
(§5) Data presented in Table 1 below show comparative results among ovariectomized rats, rats treated with 17α-ethynyl estradiol (EE2; an orally available form of estrogen), and rats treated with certain compounds of the instant invention. […] This uterine response to estrogen is well recognized in the art.
(§6) The data presented in Table 1 below reflects the response of 5 to 6 rats per treatment.

Eosinophil peroxidase = assay: Uterine Eosinophil Peroxidase (EPO) Assay in ovariectomized rats; type: in vivo, Sprague Dawley rats; conditions: for Uterine Eosinophil peroxidase, Vmax: daily for 4 days, OVX rats
Method: as §1, §2, §3
Uterine Eosinophil Peroxidase (EPO) Assay. Uteri were kept at 4° C. until time of enzymatic analysis. The uteri were then homogenized in 50 volumes of 50 mM Tris buffer (pH-8.0) containing 0.005% Triton X-100. Upon addition of 0.01% hydrogen peroxide and 10 mM O-phenylenediamine (final concentrations) in Tris buffer, increase in absorbance was monitored for one minute at 450 nm. The presence of eosonophils in the uterus is an indication of estrogenic activity of a compound. The maximal velocity of a 15 second interval was determined over the initial, linear portion of the reaction curve.
as §4
As is expressed in the data below, estrogenicity also was assessed by evaluating the adverse response of eosinophil infiltration into the uterus.
as §6

serum cholesterol = assay: Serum cholesterol in ovariectomized rats (Cholesterol Analysis); type: in vivo, Sprague Dawley rats; conditions: for Serum Cholest. % Decrease verses ovariectomized controls: daily for 4 days, OVX rats
Method: as §1, §2, §3
Cholesterol Analysis. Blood samples were allowed to clot at room temperature for 2 hours, and serum was obtained following centrifugation for 10 minutes at 3000 rpm. Serum cholesterol was determined using a Boehringer Mannheim Diagnostics high performance cholesterol assay. Briefly the cholesterol was oxidized to cholest-4-en-3-one and hydrogen peroxide. The hydrogen peroxide was then reacted with phenol and 4-aminophenazone in the presence of peroxidase to produce a p-quinone imine dye, which was read spectrophotemetrically at 500 nm. Cholesterol concentration was then calculated against a standard curve.
as §4, §5, §6

femur = assay: Osteoporosis Test Procedure: bone protection in ovariectomized rats, 35 days oral; type: in vivo; conditions: for Femur BMD % protection / Femur. % Protection (x-ray image): 35 days, relative to ovariectomy
Method: Following the General Preparation Procedure, infra, the rats are treated daily for 35 days (6 rats per treatment group) and sacrificed by carbon dioxide asphyxiation on the 36th day. The 35 day time period is sufficient to allow maximal reduction in bone density, measured as described herein. At the time of sacrifice, the uteri are removed, dissected free of extraneous tissue, and the fluid contents are expelled before determination of wet weight in order to confirm estrogen deficiency associated with complete ovariectomy. […] The uteri are then placed in 10% neutral buffered formalin to allow for subsequent histological analysis. The right femurs are excised and digitilized x-rays generated and analyzed by an image analysis program (NIH image) at the distal metaphysis. The proximal aspect of the tibiae from these animals are also scanned by quantitative computed tomography. In accordance with the above procedures, compounds of the instant invention and ethynyl estradiol (EE2) in 20% hydroxypropyl β-cyclodextrin are orally administered to test animals. Distal femur metaphysis and proximal tibiae data are the results of formula I compound treatments compared to intact and ovariectomized test animals. Results are reported as percent protection relative to ovariectomy in Table 2 below.

[1] = system: MCF-7 breast adenocarcinoma cells; assay: MCF-7 Proliferation Assay (tritiated thymidine incorporation); type: cell-based; conditions: Homo sapiens, MCF7; 48 hours with drug, then tritiated thymidine 4 hours; read-out: ED50 (MCF-7 proliferation)
Method: MCF-7 breast adenocarcinoma cells (ATCC HTB 22) were maintained in MEM (minimal essential medium, phenol red-free, Sigma, St. Louis, Mo.) supplimented with 10% fetal bovine serum (FBS) (V/V), L-glutamine (2 mM), sodium pyruvate (1 mM), HEPES {(N-[2-hydroxyethyl]piperazine-N'-[2-ethanesulfonic acid]10 mM}, non-essential amino acids and bovine insulin (1 μg/mL) (maintenance medium). Ten days prior to assay, MCF-7 cells were switched to maintenance medium supplemented with 10% dextran coated charcoal stripped fetal bovine serum (DCC-FBS) assay medium) in place of 10% FBS to deplete internal stores of steroids. MCF-7 cells were removed from maintenance flasks using cell dissociation medium (Ca^++ /Mg^++ free HBSS (phenol red-free) supplemented with 10 mM HEPES and 2 mM EDTA). Cells were washed twice with assay medium and adjusted to 80,000 cells/mL. Approximately […] (8,000 cells) were added to flat-bottom microculture wells (Costar 3596) and incubated at 37° C. in a 5% CO2 humidified incubator for 48 hours to allow for cell adherence and equilibration after transfer. Serial dilutions of drugs or DMSO as a diluent control were prepared in assay medium and […] to triplicate microcultures followed by […] assay medium for a final volume of […]. After an additional 48 hours at 37° C. in a 5% CO2 humidified incubator, microcultures were pulsed with tritiated thymidine (1 uCi/well) for 4 hours. Cultures were terminated by freezing at -70° C. for 24 hours followed by thawing and harvesting of microcultures using a Skatron Semiautomatic Cell Harvester. Samples were counted by liquid scintillation using a Wallace BetaPlace β counter. Results in Table 3 below show the ED50 (nM) for certain compounds of the instant invention: […]

Row | Structure (SMILES) | pIC50 [1] | Uterine Weight % Increase verses ovariectomized controls (uterus; 0.1 mg/kg PO) | Uterine Weight % Increase verses ovariectomized controls (uterus; 1 mg/kg PO) | Uterine Weight % Increase verses ovariectomized controls (uterus; 10 mg/kg PO) | Uterine Eosinophil peroxidase, Vmax (Eosinophil peroxidase; 0.1 mg/kg PO) | Uterine Eosinophil peroxidase, Vmax (Eosinophil peroxidase; 1 mg/kg PO) | Uterine Eosinophil peroxidase, Vmax (Eosinophil peroxidase; 10 mg/kg PO) | Serum Cholest. % Decrease verses ovariectomized controls (serum cholesterol; 0.1 mg/kg PO) | Serum Cholest. % Decrease verses ovariectomized controls (serum cholesterol; 1 mg/kg PO) | Serum Cholest. % Decrease verses ovariectomized controls (serum cholesterol; 10 mg/kg PO) | also measured
1 | COc1ccc2c3c(sc2c1)-c1ccccc1C3c1ccc(OCCN2CCCCC2)cc1 (stereo not drawn) [Example 5A, 10-[4-[2-(1-Piperidinyl)ethoxy]phenyl]-7-methoxy benzo[b]indeno[2,1-d]thiophene] |  | 33.8% | 63.5% | 92.9% | 6.4 | 35.4 | 31.8 | 59.1% | 74.4% | 60.3% | 
2 | C#C[C@]1(O)CC[C@H]2[C@@H]3CCc4cc(O)ccc4[C@H]3CC[C@@]21C [EE2, 17α-ethynyl estradiol, reference compound] |  | 169.5% |  |  | 144.0 |  |  | 90.5% |  |  | uterine weight, in words (uterus; oral, compared to ovariectomized animals): uterine weight was substantially greater than the uterine weight of ovariectomized test animals; Femur BMD % protection (femur; 0.1 mg/kg oral): 76.3%; Femur. % Protection (x-ray image) (femur; 0.1 mg/kg oral): 99.1%; prevention of bone loss, in words (femur; oral, OVX rats, femur density): prevents this loss; eosinophil infiltration into the uterus, in words (Eosinophil peroxidase; stromal layer of ovariectomized rats): substantial, expected increase in eosinophil infiltration; serum cholesterol, in words (serum cholesterol; oral, compared to ovariectomized control animals): caused a decrease in serum cholesterol when orally administered at 0.1 mg/kg/day
3 | COc1ccc2c(c1)-c1sc3cc(OC)ccc3c1C2c1ccc(OCCN2CCCCC2)cc1 (stereo not drawn) [Example 1A, 10-[4-[2-(1-Piperidinyl)ethoxy]phenyl]-3,7-dimethoxybenzo[b]indeno[2,1-d]thiophene] | 6.70 | 19.2% | 21.6% | 26.8% | 7.2 | 30.3 | 21.9 | 59.1% | 47.7% | 68.7% | 
4 | Oc1ccc2c(c1)-c1sc3cc(O)ccc3c1C2c1ccc(OCCN2CCCCC2)cc1 (stereo not drawn) [Example 2, 10-[4-[2-(1-Piperidinyl)ethoxy]phenyl]-3,7-dihydroxy benzo[b]indeno[2,1-d]thiophene] | 10.00 | 14.6% | 25.6% | 18.3% | 4.8 | 24.0 | 23.4 | 41.4% | 52.5% | 66.3% | 
5 | COc1ccc2c(c1)C(O)(c1ccc(OCCN3CCCCC3)cc1)c1c-2sc2cc(OC)ccc12 (stereo not drawn) [Example 3B, 10-[4-[2-(1-Piperidinyl)ethoxy]phenyl]-2,7-dimethoxy benzo[b]indeno[2,1-d]thiophen-10-ol] |  | 50.4% | 43.0% | 28.2% | 36.0 | 36.6 | 19.2 | 43.5% | 62.5% | 69.2% | 

The next lines start with results.

Row | pIC50 [1] | Structure (SMILES) | Uterine Weight % Increase verses ovariectomized controls (uterus; 0.1 mg/kg PO) | Uterine Weight % Increase verses ovariectomized controls (uterus; 1 mg/kg PO) | Uterine Weight % Increase verses ovariectomized controls (uterus; 10 mg/kg PO) | Uterine Eosinophil peroxidase, Vmax (Eosinophil peroxidase; 0.1 mg/kg PO) | Uterine Eosinophil peroxidase, Vmax (Eosinophil peroxidase; 1 mg/kg PO) | Uterine Eosinophil peroxidase, Vmax (Eosinophil peroxidase; 10 mg/kg PO) | Serum Cholest. % Decrease verses ovariectomized controls (serum cholesterol; 0.1 mg/kg PO) | Serum Cholest. % Decrease verses ovariectomized controls (serum cholesterol; 1 mg/kg PO) | Serum Cholest. % Decrease verses ovariectomized controls (serum cholesterol; 10 mg/kg PO) | also measured
6 | 7.00 | c1ccc2c(c1)-c1sc3ccccc3c1C2c1ccc(OCCN2CCCCC2)cc1 (stereo not drawn) [Example 1B, 10-[4-[2-(1-Piperidinyl)ethoxy]phenyl]benzo[b] indeno[2,1-d]thiophene] | 21% | 31.8% | 27.7% | 4.8 | 34.2 | 50.4 | 56.8% | 71.0% | 75.3% | 
7 | 8.00 | Cl.Oc1ccc2c3c(sc2c1)-c1ccccc1C3c1ccc(OCCN2CCCCC2)cc1 (stereo not drawn) [Example 6, 10-[4-[2-(1-Piperidinyl)ethoxy]phenyl]-7-hydroxy benzo[b]indeno[2,1-d]thiophene hydrochloride] | 32.5% | 67.4% | 54.0% | 2.9 | 3.7 | 29.8 | 1.3% | 40.6% | 69.9% | Femur BMD % protection (femur; 0.01 mg/kg oral): 40.4%; Femur. % Protection (x-ray image) (femur; 0.01 mg/kg oral): 53.8%; Femur BMD % protection (femur; 0.1 mg/kg oral): 46.6%; Femur. % Protection (x-ray image) (femur; 0.1 mg/kg oral): 39.2%; Femur BMD % protection (femur; 1 mg/kg oral): 66.6%; Femur. % Protection (x-ray image) (femur; 1 mg/kg oral): 73.4%; Femur BMD % protection (femur; 10 mg/kg oral): 64.0%; Femur. % Protection (x-ray image) (femur; 10 mg/kg oral): 48.2%
